Test results from US20220211678A1, “USES OF (+)-A-DIHYDROTETRABENAZINE IN METHODS OF TREATING MOVEMENT DISORDER” (ADEPTIO PHARMACEUTICALS LIMITED, priority 2017, published 2022).
Read-outs that look alike come from different tables or passages of the source.

Key:
amphetamine-induced rats = assay: Amphetamine-induced locomotor activity and stereotypic behaviour, open field arena (Example 2, Studies 1, 2, 4); assay type: in vivo, rat; details: for normalised total stereotypic behaviour, compared to vehicle-amphetamine group / total distance travelled, compared to vehicle-amphetamine group: amphetamine at t=30 min; for locomotor activity compared to the vehicle-amphetamine group (conclusion) / stereotypic behaviour compared to the vehicle-amphetamine group (conclusion): risperidone 1 mg/kg
Text: Dopaminergic models for Tourette's syndrome use systemic or focal administration of dopamine agonists such as amphetamine. After injection with amphetamine, a test animal expresses stereotypic behaviour. In particular, involvement of a dopaminergic system implicated in Tourette's syndrome wild type mice and rats can be stimulated with amphetamine and the resulting hyperactivity and stereotypies can be reversed with dopamine antagonists such as risperidone and haloperidol (Tourette's syndrome—Animal Models for Screening, Charles River Discovery Research Services, Finland).
(§1) All animal experiments were carried out according to the National Institute of Health (NIH) guidelines for the care and use of laboratory animals, and approved by the National Animal Experiment Board, Finland. Male CD (Charles River Laboratories, Germany) at weight range of 200-250 g (165-200 g upon arrival) were used for the experiments. Animals were housed at a standard temperature (22±1° C.) and in a light-controlled environment (lights on from 7 am to 8 pm) with ad libitum access to food and water.
(§2) Locomotor activity of the rats was tested in open field arena. The open field test was performed during the rat light cycle and under a normal lighting evenly distributed to the test chambers. The paths of the rats were recorded by activity monitor (Med. Associates Inc.).
(§3) Dosing the vehicle, vehicle-amphetamine, (+)-α-DHTBZ or risperidone was done prior to LMA test. The rats were placed in the centre of the arena, and the path was recorded for 60 minutes.
(§4) Animals were grouped as follows: • Group 1: 10 rats treated with Vehicle (t=0 min) and Vehicle (t=30 min) • Group 2: 10 rats treated with Vehicle (t=0 min) and Amphetamine (t=30 min) • Group 3: 10 rats treated with (+)-α-DHTBZ 0.5 mg/kg (t=0 min) and Amphetamine (t=30 min) • Group 4: 10 rats treated with (+)-α-DHTBZ 1 mg/kg (t=0 min) and Amphetamine (t=30 min) • Group 5: 10 rats treated with (+)-α-DHTBZ 1.5 mg/kg (t=0 min) and Amphetamine (t=30 min) • Group 6: 10 rats treated with (+)-α-DHTBZ 2 mg/kg (t=0 min) and Amphetamine (t=30 min) • Group 7: 10 rats treated with risperidone 1 mg/kg (t=0 min) and Amphetamine (t=30 min)
(§5) Rats dosed with either vehicle, (+)-α-DHTBZ 0.5 mg/kg, (+)-α-DHTBZ 1 mg/kg, (+)-α-DHTBZ 1.5 mg/kg, (+)-α-DHTBZ 2 mg/kg or Risperidone 1 mg/kg were subjected to LMA testing first for 30 min and then for 60 minutes after vehicle or amphetamine challenge. Resulting locomotor activity was evaluated in 3 min bins and as a total over the testing period.
as §5, with “stereotypic” for “locomotor”
Animals were grouped as follows: • Group 1: 10 rats treated with Vehicle (t=0 min) and Vehicle (t=30 min) • Group 2: 10 rats treated with Vehicle (t=0 min) and Amphetamine (t=30 min) • Group 3: 10 rats treated with (+)-α-DHTBZ 0.1 mg/kg (t=0 min) and Amphetamine (t=30 min) • Group 4: 10 rats treated with (+)-α-DHTBZ 0.25 mg/kg (t=0 min) and Amphetamine (t=30 min) • Group 5: 10 rats treated with risperidone 1 mg/kg (t=0 min) and Amphetamine (t=30 min)
as §4, with “(+)-α-DHTBZ 1” for “(+)-α-DHTBZ 0.5”, “(+)-α-DHTBZ 1.5” for “(+)-α-DHTBZ 1”, “with Valbenazine 1” for “with (+)-α-DHTBZ 1.5”, “with Valbenazine 1.5” for “with (+)-α-DHTBZ 2”

[1] = test system: patients suffering from tardive dyskinesia; details: cited from earlier work
[2] = test system: Tardive Dyskinesia sufferers; details: 80 mg/day; cited from earlier work
[3] = oral administration of tetrabenazine, four patients affected by tardive dyskinesia; cited from earlier work
[4] = rats, administration of tetrabenazine or dihydrotetrabenazine; stereochemistry not disclosed; cited from earlier work
[5] = test system: non-amphetamine induced rats; assay: Locomotor activity and stereotypic behaviour in non-amphetamine induced rats, open field arena (Example 2, Study 3); assay type: in vivo, rat; details: Study 3, non-induced rats; (+)-α-DHTBZ 2.5 mg/kg or 5 mg/kg, risperidone 1 mg/kg
Procedure: as §1, §2, §3
Animals were grouped as follows: • Group 1: 10 rats treated with Vehicle • Group 2: 10 rats treated with (+)-α-DHTBZ 2.5 mg/kg • Group 3: 10 rats treated with (+)-α-DHTBZ 5 mg/kg • Group 4: 10 rats treated with risperidone 1 mg/kg

[6] = oral administration of tetrabenazine, patients treated for involuntary movement disorders; cited from earlier work
[7] = Study 1, (+)-α-DHTBZ at all the tested doses (0.5, 1, 1.5, 2 mg/kg)

SMILES: COc1cc2c(cc1OC)[C@H]1C[C@@H](OC(=O)[C@@H](N)C(C)C)[C@H](CC(C)C)CN1CC2 [Valbenazine, reference compound]
- normalised total stereotypic behaviour, compared to vehicle-amphetamine group (amphetamine-induced rats; Study 4, 1 mg/kg): significantly different
- total distance travelled, compared to vehicle-amphetamine group (amphetamine-induced rats; Study 4, 1 mg/kg): significantly different
- normalised total stereotypic behaviour, compared to vehicle-amphetamine group (amphetamine-induced rats; Study 4, 1.5 mg/kg): significantly different
- total distance travelled, compared to vehicle-amphetamine group (amphetamine-induced rats; Study 4, 1.5 mg/kg): significantly different
- symptoms scored with the abnormal involuntary movement scale (AIMS) ([1]; 50 mg/day): did not show any significant signs of improvement
- symptoms scored with the abnormal involuntary movement scale (AIMS) ([1]; 100 mg/day): some reduction of symptoms
- Abnormal Involuntary Movement Score [2]: significant improvement

SMILES: COc1cc2c(cc1OC)C1CC(O)C(CC(C)C)CN1CC2 (stereo not drawn) [dihydrotetrabenazine, 2-hydroxy-3-(2-methylpropyl)-1,3,4,6,7,11b-hexahydro-9,10-dimethoxy-benzo(a)quinolizine]
- plasma concentrations [3]: relatively high concentrations
- crossing of the blood-brain barrier [4]: able to cross the blood-brain barrier

SMILES: Cc1nc2n(c(=O)c1CCN1CCC(c3noc4cc(F)ccc34)CC1)CCCC2 [risperidone, reference compound]
- normalised total stereotypic behaviour, compared to vehicle-amphetamine group (amphetamine-induced rats; Study 1, 1 mg/kg): significantly different
- locomotor activity compared to the vehicle-amphetamine group (conclusion) (amphetamine-induced rats; [7]): lower locomotor activity
- stereotypic behaviour compared to the vehicle-amphetamine group (conclusion) (amphetamine-induced rats; [7]): reduced stereotypic behaviour
- normalised total stereotypic behaviour, compared to vehicle-amphetamine group (amphetamine-induced rats; Study 2, 1 mg/kg): significantly different
- locomotor activity compared to the vehicle-amphetamine group (conclusion) (amphetamine-induced rats; Study 2, (+)-α-DHTBZ at 0.25 mg/kg): lower locomotor activity
- stereotypic behaviour compared to the vehicle-amphetamine group (conclusion) (amphetamine-induced rats; Study 2, (+)-α-DHTBZ at both the tested doses (0.1, 0.25 mg/kg)): reduced stereotypic behaviour
- normalised total stereotypic behaviour, compared to vehicle-amphetamine group (amphetamine-induced rats; Study 4, 1 mg/kg): significantly different
- total distance travelled, compared to vehicle-amphetamine group (amphetamine-induced rats; Study 4, 1 mg/kg): significantly different
- total movement compared to rats treated with the vehicle [5]: reduced total movement
- total stereotypic behaviour compared to rats treated with the vehicle [5]: reduced total stereotypic behaviour

SMILES: COc1cc2c(cc1OC)C1CC(=O)C(CC(C)C)CN1CC2 (stereo not drawn) [tetrabenazine, 1,3,4,6,7,11b-hexahydro-9,10-dimethoxy-3-(2-methylpropyl)-2H-benzo(a)quinolizin-2-one]
- plasma concentrations [3]: low plasma concentrations
- plasma concentrations [6]: very low plasma concentrations
